Active and inactive are the calls of the source. The rule behind the calls is not given here.
Tests used:
Proteasome [1] = assay: Inhibition of proteasome in human RPMI-8226 cells assessed as reduction of cell growth incubated for 72 hrs by CellTiter 96 aqueous one solution cell proliferation assay; details: RPMI-8226, 72 h
[2] = target: T1, Bromodomain and extra-terminal motif (BET) (Homo sapiens) (UniProt P25440+O60885+Q58F21+Q15059); assay: Inhibition of BET in human ANBL-6 WT cells assessed as increase in protein NOXA expression level at 20 nM by immunoblot analysis; type: cell-based
Proteasome [3] = assay: Ratio of IC50 for inhibition of proteasome in human ANBL6 cells assessed as reduction of cell viability to IC50 for inhibition of proteasome in human ANBL6/BR resistant cells assessed as reduction of cell viability; details: condition multiple myeloma
[4] = test system: Bortezomib-resistant ANBL6; assay: Induction of apoptosis in human bortezomib-resistant ANBL6 cells assessed as viable at 20 nM incubated for 72 hrs by annexin V and 7-AAD staining by flow cytometry analysis (Rvb=80 %); type: functional
[5] = target: T1, Bromodomain and extra-terminal motif (BET) (Homo sapiens); assay: Inhibition of BET in human ANBL-6 WT cells assessed as change in protein MYC expression level at 20 nM by immunoblot analysis; type: cell-based
Proteasome [6] = assay: Inhibition of proteasome in Melphalan Resistant human RPMI-8226 cells assessed as reduction of cell growth incubated for 72 hrs by CellTiter 96 aqueous one solution cell proliferation assay; details: Melphalan-resistant RPMI-8226 cell
Proteasome [7] = assay: Inhibition of proteasome in human U-266 cells assessed as reduction of cell growth incubated for 72 hrs by CellTiter 96 aqueous one solution cell proliferation assay; details: U-266, 72 h
ANBL-6 [8] = assay: Induction of apoptosis in wild-type human ANBL-6 cells assessed as viable at 20 nM incubated for 72 hrs by annexin V and 7-AAD staining by flow cytometry analysis (Rvb=59 %); type: functional
Proteasome [9] = assay: Inhibition of proteasome in human bortezomib-resistant ANBL6 cells assessed as reduction of cell growth incubated for 72 hrs by CellTiter 96 aqueous one solution cell proliferation assay
ANBL-6 [10] = assay: Induction of apoptosis in wild-type human ANBL-6 cells assessed as late apoptosis at 20 nM incubated for 72 hrs by annexin V and 7-AAD staining by flow cytometry analysis (Rvb=26 %); type: functional
Proteasome [11] = assay: Inhibition of proteasome in bortezomib Resistant human RPMI-8226 cells assessed as reduction of cell growth incubated for 72 hrs by CellTiter 96 aqueous one solution cell proliferation assay; details: Bortezomib-resistant RPMI-8226, 72 h
[12] = test system: Bortezomib-resistant ANBL6; assay: Induction of apoptosis in human bortezomib-resistant ANBL6 cells assessed as late apoptosis at 20 nM incubated for 72 hrs by annexin V and 7-AAD staining by flow cytometry analysis (Rvb=5 %); type: functional
Proteasome [13] = assay: Inhibition of proteasome in human ANBL-6 cells assessed as reduction of cell growth incubated for 72 hrs by CellTiter 96 aqueous one solution cell proliferation assay; details: ANBL-6, 72 h
[14] = test system: Bortezomib-resistant ANBL6; assay: Induction of apoptosis in human bortezomib-resistant ANBL6 cells assessed as early apoptosis at 20 nM incubated for 72 hrs by annexin V and 7-AAD staining by flow cytometry analysis (Rvb=15 %); type: functional
[15] = target: T1, Bromodomain and extra-terminal motif (BET) (Homo sapiens); assay: Inhibition of BET in human bortezomib-resistant ANBL6 cells assessed as change in protein MYC expression level at 20 nM by immunoblot analysis; type: cell-based; details: Bortezomib-resistant ANBL6 cell
ANBL-6 [16] = assay: Induction of apoptosis in wild-type human ANBL-6 cells assessed as early apoptosis at 20 nM incubated for 72 hrs by annexin V and 7-AAD staining by flow cytometry analysis (Rvb=14 %); type: functional
[17] = target: T1, Bromodomain and extra-terminal motif (BET) (Homo sapiens); assay: Inhibition of BET in human bortezomib-resistant ANBL6 cells assessed as increase in protein NOXA expression level at 20 nM by immunoblot analysis; type: cell-based; details: Bortezomib-resistant ANBL6 cell
Proteasome [18] = assay: Ratio of IC50 for inhibition of proteasome in human RPMI-8226 cells assessed as reduction of cell viability to IC50 for inhibition of proteasome in human RPMI-8226/BR resistant cells assessed as reduction of cell viability; details: condition multiple myeloma
[19] = Ratio of IC50 for inhibition of FLT3/cKIT/FGFR1/VEGFR1/PDGFR/CSF1R in human RPMI-8226 cells assessed as reduction of cell viability to IC50 for inhibition of FLT3/cKIT/FGFR1/VEGFR1/PDGFR/CSF1R in human melphalan-resistant RPMI-8226 cells assessed as reduction of cell viability; details: time 72 hrs; condition multiple myeloma
RPMI-8226 = assay: Cytotoxicity against human RPMI-8226 cells assessed as reduction of cell growth incubated for 72 hrs by CellTiter 96 aqueous one solution cell proliferation assay; type: functional, cell-based; details: RPMI-8226, 72 h
[20] = Ratio of IC50 for inhibition of FLT3/cKIT/FGFR1/VEGFR3/PDGFR/CSF1R in human RPMI-8226 cells assessed as reduction of cell viability to IC50 for inhibition of FLT3/cKIT/FGFR1/VEGFR3/PDGFR/CSF1R in human RPMI-8226/BR resistant cells assessed as reduction of cell viability; details: condition multiple myeloma
cells [21] = details: Homo sapiens, Melphalan-resistant RPMI-8226 cell, 72 h
[22] = Ratio of IC50 for inhibition of FLT3/cKIT/FGFR3/VEGFR1/PDGFR/CSF1R in human ANBL6 cells assessed as reduction of cell viability to IC50 for inhibition of FLT3/cKIT/FGFR3/VEGFR1/PDGFR/CSF1R in human ANBL6/BR resistant cells assessed as reduction of cell viability; details: condition multiple myeloma
[23] = Ratio of IC50 for inhibition of FLT3/cKIT/FGFR1/VEGFR2/PDGFR/CSF1R in human RPMI-8226 cells assessed as reduction of cell viability to IC50 for inhibition of FLT3/cKIT/FGFR1/VEGFR2/PDGFR/CSF1R in human melphalan-resistant RPMI-8226 cells assessed as reduction of cell viability; details: time 72 hrs; condition multiple myeloma
[24] = Ratio of IC50 for inhibition of FLT3/cKIT/FGFR3/VEGFR2/PDGFR/CSF1R in human ANBL6 cells assessed as reduction of cell viability to IC50 for inhibition of FLT3/cKIT/FGFR3/VEGFR2/PDGFR/CSF1R in human ANBL6/BR resistant cells assessed as reduction of cell viability; details: condition multiple myeloma
[25] = Ratio of IC50 for inhibition of FLT3/cKIT/FGFR3/VEGFR1/PDGFR/CSF1R in human RPMI-8226 cells assessed as reduction of cell viability to IC50 for inhibition of FLT3/cKIT/FGFR3/VEGFR1/PDGFR/CSF1R in human melphalan-resistant RPMI-8226 cells assessed as reduction of cell viability; details: time 72 hrs; condition multiple myeloma
[26] = Ratio of IC50 for inhibition of FLT3/cKIT/FGFR1/VEGFR2/PDGFR/CSF1R in human ANBL6 cells assessed as reduction of cell viability to IC50 for inhibition of FLT3/cKIT/FGFR1/VEGFR2/PDGFR/CSF1R in human ANBL6/BR resistant cells assessed as reduction of cell viability; details: condition multiple myeloma
[27] = Ratio of IC50 for inhibition of FLT3/cKIT/FGFR3/VEGFR3/PDGFR/CSF1R in human ANBL6 cells assessed as reduction of cell viability to IC50 for inhibition of FLT3/cKIT/FGFR3/VEGFR3/PDGFR/CSF1R in human ANBL6/BR resistant cells assessed as reduction of cell viability; details: condition multiple myeloma
[28] = Ratio of IC50 for inhibition of FLT3/cKIT/FGFR3/VEGFR3/PDGFR/CSF1R in human RPMI-8226 cells assessed as reduction of cell viability to IC50 for inhibition of FLT3/cKIT/FGFR3/VEGFR3/PDGFR/CSF1R in human RPMI-8226/BR resistant cells assessed as reduction of cell viability; details: condition multiple myeloma
[29] = Ratio of IC50 for inhibition of FLT3/cKIT/FGFR1/VEGFR1/PDGFR/CSF1R in human ANBL6 cells assessed as reduction of cell viability to IC50 for inhibition of FLT3/cKIT/FGFR1/VEGFR1/PDGFR/CSF1R in human ANBL6/BR resistant cells assessed as reduction of cell viability; details: condition multiple myeloma
[30] = Ratio of IC50 for inhibition of FLT3/cKIT/FGFR3/VEGFR2/PDGFR/CSF1R in human RPMI-8226 cells assessed as reduction of cell viability to IC50 for inhibition of FLT3/cKIT/FGFR3/VEGFR2/PDGFR/CSF1R in human RPMI-8226/BR resistant cells assessed as reduction of cell viability; details: condition multiple myeloma
[31] = Ratio of IC50 for inhibition of FLT3/cKIT/FGFR1/VEGFR1/PDGFR/CSF1R in human RPMI-8226 cells assessed as reduction of cell viability to IC50 for inhibition of FLT3/cKIT/FGFR1/VEGFR1/PDGFR/CSF1R in human RPMI-8226/BR resistant cells assessed as reduction of cell viability; details: condition multiple myeloma
[32] = Ratio of IC50 for inhibition of FLT3/cKIT/FGFR1/VEGFR3/PDGFR/CSF1R in human RPMI-8226 cells assessed as reduction of cell viability to IC50 for inhibition of FLT3/cKIT/FGFR1/VEGFR3/PDGFR/CSF1R in human melphalan-resistant RPMI-8226 cells assessed as reduction of cell viability; details: time 72 hrs; condition multiple myeloma
[33] = Ratio of IC50 for inhibition of FLT3/cKIT/FGFR1/VEGFR2/PDGFR/CSF1R in human RPMI-8226 cells assessed as reduction of cell viability to IC50 for inhibition of FLT3/cKIT/FGFR1/VEGFR2/PDGFR/CSF1R in human RPMI-8226/BR resistant cells assessed as reduction of cell viability; details: condition multiple myeloma
[34] = Ratio of IC50 for inhibition of FLT3/cKIT/FGFR3/VEGFR1/PDGFR/CSF1R in human RPMI-8226 cells assessed as reduction of cell viability to IC50 for inhibition of FLT3/cKIT/FGFR3/VEGFR1/PDGFR/CSF1R in human RPMI-8226/BR resistant cells assessed as reduction of cell viability; details: condition multiple myeloma
U-266 = assay: cells; details: Homo sapiens, U-266, 72 h
[35] = Ratio of IC50 for inhibition of FLT3/cKIT/FGFR1/VEGFR3/PDGFR/CSF1R in human ANBL6 cells assessed as reduction of cell viability to IC50 for inhibition of FLT3/cKIT/FGFR1/VEGFR3/PDGFR/CSF1R in human ANBL6/BR resistant cells assessed as reduction of cell viability; details: condition multiple myeloma
ANBL-6 [36] = assay: cells; details: Homo sapiens, ANBL-6, 72 h
cells [37] = details: Homo sapiens, Bortezomib-resistant RPMI-8226, 72 h
[38] = Ratio of IC50 for inhibition of FLT3/cKIT/FGFR3/VEGFR2/PDGFR/CSF1R in human RPMI-8226 cells assessed as reduction of cell viability to IC50 for inhibition of FLT3/cKIT/FGFR3/VEGFR2/PDGFR/CSF1R in human melphalan-resistant RPMI-8226 cells assessed as reduction of cell viability; details: time 72 hrs; condition multiple myeloma
[39] = Ratio of IC50 for inhibition of FLT3/cKIT/FGFR3/VEGFR3/PDGFR/CSF1R in human RPMI-8226 cells assessed as reduction of cell viability to IC50 for inhibition of FLT3/cKIT/FGFR3/VEGFR3/PDGFR/CSF1R in human melphalan-resistant RPMI-8226 cells assessed as reduction of cell viability; details: time 72 hrs; condition multiple myeloma
[40] = test system: Bortezomib-resistant ANBL6; assay: cells; details: Homo sapiens, Bortezomib-resistant ANBL6, 72 h

CC(C)C[C@H](NC(=O)[C@H](Cc1ccccc1)NC(=O)c1cnccn1)B(O)O [BORTEZOMIB]
IC50 (Proteasome [1]): […] | inhibition [2]: Active | Ratio IC50 (Proteasome [3]): […] | Activity [4]: 49% | inhibition [5]: inactive | IC50 (Proteasome [6]): […] | IC50 (Proteasome [7]): […] | Activity (ANBL-6 [8]): 7% | IC50 (Proteasome [9]): […] | Activity (ANBL-6 [10]): 22% | IC50 (Proteasome [11]): […] | Activity [12]: 6% | IC50 (Proteasome [13]): […] | Activity [14]: 45% | inhibition [15]: inactive | Activity (ANBL-6 [16]): 71% | inhibition [17]: Active | Ratio IC50 (Proteasome [18]): […]

CN1CCN(c2ccc3nc(-c4c(N)c5c(F)cccc5[nH]c4=O)[nH]c3c2)CC1 [DOVITINIB]
Ratio IC50 [19]: 2.6 | IC50 (RPMI-8226): 2140 nM | Ratio IC50 [20]: 0.38 | IC50 (cells [21]): 2950 nM | Ratio IC50 [22]: 1.51 | Ratio IC50 [23]: 2.6 | Ratio IC50 [24]: 1.51 | Ratio IC50 [25]: 2.6 | Ratio IC50 [26]: 1.51 | Ratio IC50 [27]: 1.51 | Ratio IC50 [28]: 0.38 | Ratio IC50 [29]: 1.51 | Ratio IC50 [30]: 0.38 | Ratio IC50 [31]: 0.38 | Ratio IC50 [32]: 2.6 | Ratio IC50 [33]: 0.38 | Ratio IC50 [34]: 0.38 | IC50 (U-266): 6760 nM | Ratio IC50 [35]: 1.51 | IC50 (ANBL-6 [36]): 10000 nM | IC50 (cells [37]): 5620 nM | Ratio IC50 [38]: 2.6 | Ratio IC50 [39]: 2.6 | IC50 [40]: 6610 nM
